Reference: patent US20230357271A1, “MACROCYCLIC COMPOUND” (Asahi Kasei Pharma Corporation, priority 2020, published 2023)
Where two headings read alike, the source gives them in different places. Blank lines part the entries; values can stand above or below the compound they belong to.

Legend:
[1] = 14-membered ring
[2] = molecular target: human IRAK-4 (Homo sapiens (Human), UniProt Q9NWZ3); assay: Measurement of human IRAK-4 inhibitory activity (TR-FRET); assay type: biochemical; conditions: 1 nM IRAK-4, 0.5 µM peptide substrate, 10 µM ATP, 23° C., 30 minutes
Chain of human IRAK-4 (Q9NWZ3 whole entry): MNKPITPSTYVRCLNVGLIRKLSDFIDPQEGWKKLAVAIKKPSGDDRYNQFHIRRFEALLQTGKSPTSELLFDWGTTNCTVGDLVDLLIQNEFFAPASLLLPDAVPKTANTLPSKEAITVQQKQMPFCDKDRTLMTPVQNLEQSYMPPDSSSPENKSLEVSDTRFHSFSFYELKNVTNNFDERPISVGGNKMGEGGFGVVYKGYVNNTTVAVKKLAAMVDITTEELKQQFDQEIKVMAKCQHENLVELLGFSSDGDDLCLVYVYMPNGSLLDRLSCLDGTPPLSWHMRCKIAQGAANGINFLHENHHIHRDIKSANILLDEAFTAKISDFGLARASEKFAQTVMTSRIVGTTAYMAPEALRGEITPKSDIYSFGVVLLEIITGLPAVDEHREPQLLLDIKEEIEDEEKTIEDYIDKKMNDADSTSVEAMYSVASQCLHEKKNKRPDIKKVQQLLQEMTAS
Method: For the measurement of the activity of the human IRAK-4 (Invitrogen, Cat. PV3362), phosphorylation of the IRAK-4 peptide substrate (biotin-KKKKRFSFKKSFKC) by the enzyme in the presence of 10 µM ATP (Sigma-Aldrich, Cat. A7699) was measured by the TR-FRET method. The enzymatic reaction was performed in a reaction buffer containing 50 mM HEPES (pH 7.2), 1 mM DTT, 0.1 mM Na3VO4, 5 mM MgCl2, 1 mM MnCl2, and 0.1% bovine serum albumin. For the measurement of the IRAK-4 inhibitory activity, a test compound was added to the reaction buffer containing 1 nM IRAK-4, 0.5 µM peptide substrate, and 10 µM ATP, and the mixture was incubated at 23° C. for 30 minutes. Then, a detection solution containing an antibody labeled with europium cryptate (0.3 µg/mL, the antibody was prepared by using the IRAK-4 peptide substrate as the antigen), streptavidin-XL665 (2 µg/mL, CisBio, Cat. 610SAXLB), 50 mM HEPES (pH 7.2), 0.1% BSA, 120 mM KF, and 66.7 mM EDTA (all the concentrations of the reagents are final concentrations) was added to terminate the reaction, and then the mixture was further incubated at 23° C. for 60 minutes. Fluorescence intensity was measured at wavelengths of 665 nm and 620 nm with a microplate reader, and the enzymatic activity was calculated as the ratio of fluorescence intensities at 665 nm and 620 nm (665 nm/620 nm).
When the measurement was performed in multiplicate, the results are represented with average values.

[3] = test system: human acute monocytic leukemia cell strain THP-1; assay: LPS-stimulated TNFα production inhibition test using THP-1 cells; assay type: cell-based; conditions: LPS 2.5 ng/mL, TNFα by HTRF
Method: By the THP-1 assay, influence of a test compound on the TNFα production induced by LPS stimulation can be evaluated. The THP-1 cells (ATCC, Cat. TIB-202) were inoculated on a 96-well plate at a density of 1 × 10^5 cells/160 µL/well, a test compound was added in a volume of 20 µL, and the plate was incubated at 37° C. for 1 hour in a 5% CO2 incubator. Then, LPS in a volume of 20 µL (final concentration 2.5 ng/mL, Sigma, Cat. L2630) was added, and the plate was further incubated for 4 hours. After the incubation, the plate was centrifuged, and 100 µL of the supernatant was taken from each well, and used for evaluation of the amount of TNFα using HTRF (Cisbio, Cat. 62TNFPEB). In the measurement of the amount of TNFα, the supernatant was diluted twice with the medium, and then added to wells of a 384-well plate in a volume of 10 µL, then anti-TNFα-cryptate (5 µL), and anti-TNFα-XL665 (5 µL) were added, and the plate was left standing overnight. The fluorescence intensity ratio for the wavelengths of 620 and 665 nm (620 nm/665 nm) was measured with a microplate reader, and the amount of TNFα in the supernatant was calculated by using a calibration curve. The TNFα production suppression ratio observed with no addition of LPS was defined to be 100%, the TNFα production suppression ratio observed with no addition of the test compound was defined to be 0%, and IC50 of the test compound was calculated by using the 4-parameter logistic model of the data analysis software XLfit (ID Business Solutions Ltd.).
When the measurement was performed in multiplicate, the results are represented with average values. The values were rounded to the fourth decimal place.

SMILES: CC(C)(C)OC(=O)N1CC[C@H]2C[C@H]1C(=O)NCC(F)COc1c(OCc3ccccc3)ccc3ncc(cc13)N2 (some centres unmarked)
ring closure, isolated yield ([1]; from CC(C)(C)OC(=O)N1CC[C@H](Nc2cnc3ccc(OCc4ccccc4)c(O)c3c2)C[C@H]1C(=O)NCC(F)CO, ether bond, PPh3/DTBAD, toluene, 4.84 mM, 25.0 °C, 1.0 h): 67%
ring closure, yield of all isomers (from CC(C)(C)OC(=O)N1CC[C@H](Nc2cnc3ccc(OCc4ccccc4)c(O)c3c2)C[C@H]1C(=O)NCC(F)CO, ether bond, PPh3 / di-tert-butyl azodicarboxylate, toluene, 4.76 mM, 25.0 °C, 1.0 h): 67%

SMILES: CC(C)(C)OC(=O)N1CC[C@H]2C[C@H]1C(=O)NCCCOc1c(Br)ccc3ncc(nc13)N2
ring closure, isolated yield ([1]; from CC(C)(C)OC(=O)N1CC[C@H](Nc2cnc3ccc(Br)c(O)c3n2)C[C@H]1C(=O)NCCCO, ether bond, PPh3/DTBAD, THF, 5.0 mM, 25.0 °C, 2.0 h): 70%
ring closure, isolated yield ([1]; from CC(C)(C)OC(=O)N1CC[C@H](Nc2cnc3ccc(Br)c(O)c3n2)C[C@H]1C(=O)NCCCO, ether bond, PPh3/DTBAD, THF, 5.0 mM, 25.0 °C, 12.0 h): 61%
ring closure, yield of all isomers (from CC(C)(C)OC(=O)N1CC[C@H](Nc2cnc3ccc(Br)c(O)c3n2)C[C@H]1C(=O)NCCCO, ether bond, PPh3 / di-tert-butyl azodicarboxylate, tetrahydrofuran, 4.91 mM, 25.0 °C, 12.0 h): 61%
ring closure, yield of all isomers (from CC(C)(C)OC(=O)N1CC[C@H](Nc2cnc3ccc(Br)c(O)c3n2)C[C@H]1C(=O)NCCCO, ether bond, PPh3 / di-tert-butyl azodicarboxylate, tetrahydrofuran, 4.92 mM, 25.0 °C, 2.0 h): 70%

SMILES: CC(C)(C)OC(=O)N1CC[C@H]2C[C@H]1C(=O)OCCCOc1c(OCc3ccccc3)ccc3ncc(cc13)N2
ring closure, isolated yield ([1]; from CC(C)(C)OC(=O)N1CC[C@H](N)C[C@H]1C(=O)OCCCOc1c(OCc2ccccc2)ccc2ncc(Br)cc12, cn_pd bond, tBuXPhos Pd G3/Cs2CO3, 1,4-dioxane, 98.8 mM, 120.0 °C, 72.0 h): 7%
ring closure, yield of all isomers (from CC(C)(C)OC(=O)N1CC[C@H](N)C[C@H]1C(=O)OCCCOc1c(OCc2ccccc2)ccc2ncc(Br)cc12, cn_pd bond, tBuXPhos Pd G3 / Cs2CO3, 1,4-dioxane, 98.8 mM, 120.0 °C, 72.0 h): 7%

SMILES: CC(C)(C)OC(=O)N1CC[C@H]2C[C@H]1C(=O)NCCCCc1c(OCc3ccccc3)ccc3ncc(cc13)N2
ring closure, yield of all isomers (from CC(C)(C)OC(=O)N1CC[C@H](N)C[C@H]1C(=O)NCCCCc1c(OCc2ccccc2)ccc2ncc(Br)cc12, cn_pd bond, tBuBrettPhos Pd G3 / phosphazene base P2-Et, toluene, 29.3 mM, 25.0 °C): 39%

SMILES: CC(C)(C)OC(=O)N1CC[C@H]2C[C@H]1C(=O)NCCCOc1c(OCc3ccccc3)ccc3ncc(cc13)O2
ring closure, isolated yield ([1]; from CC(C)(C)OC(=O)N1CC[C@@H](O)C[C@H]1C(=O)NCCCOc1c(OCc2ccccc2)ccc2ncc(O)cc12, ether bond, PPh3/DTBAD, toluene, 11.0 mM, 1.5 h): 72%

IC50 [2]: 1.25 nM
IC50 ([3]; Homo sapiens, THP-1, 4 h): 0.092 µM
SMILES: CCN1CC[C@H]2C[C@H]1C(=O)NCCCOc1c(-c3cnc(CO)s3)ccc3ncc(nc13)N2 [a-01-16]

IC50 [2]: 2 nM
IC50 ([3]; Homo sapiens, THP-1, 4 h): 0.024 µM
SMILES: [2H]C([2H])([2H])N1CC[C@H]2C[C@H]1C(=O)NCC(F)COc1c(-c3cnc(COCCC)nc3)ccc3ncc(cc13)N2 (some centres unmarked) [a-02-06]

SMILES: CN1CCC2CC1(C)C(=O)NCC(F)COc1c(OCc3ccccc3)ccc3ncc(cc13)N2 (centres unmarked)
ring closure, yield of all isomers (from CN1CCC(N)CC1(C)C(=O)NCC(F)COc1c(OCc2ccccc2)ccc2ncc(Br)cc12, cn_pd bond, Pd2(dba)3 / XPhos / sodium phenoxide, 1,4-dioxane, 107.0 mM, 101.0 °C, 14.0 h): 32%

IC50 [2]: 2.33 nM
IC50 ([3]; Homo sapiens, THP-1, 4 h): 0.012 µM
SMILES: CCCOCc1ncc(-c2ccc3ncc4cc3c2OCC(F)CNC(=O)[C@@H]2C[C@H](CC(C)N2C)N4)cn1 (some centres unmarked) [a-02-01]

IC50 [2]: 1.37 nM
IC50 ([3]; 4 hours): 0.048 µM
SMILES: CCCOCc1ncc(-c2ccc3ncc4nc3c2OCC(F)CNC(=O)[C@@H]2C[C@H](CCN2C)N4)cn1 (some centres unmarked) [a-01-05]

SMILES: CC1CC2C[C@@H](C(=O)NCC/C=C/c3c(OCc4ccccc4)ccc4ncc(cc34)N2)N1C (some centres unmarked)
ring closure, yield of all isomers (from CC1CC(N)C[C@@H](C(=O)NCC/C=C/c2c(OCc3ccccc3)ccc3ncc(Br)cc23)N1C, cn_pd bond, Pd2(dba)3 / XPhos / sodium phenoxide, 1,4-dioxane, 97.4 mM, 101.0 °C, 14.0 h): 75%

IC50 [2]: 4.43 nM
IC50 ([3]; Homo sapiens, THP-1, 4 h): 0.141 µM
SMILES: Cc1ncc(-c2ccc3ncc4nc3c2OCC2(CC2)CNC(=O)[C@@H]2C[C@H](CCN2C)N4)cn1 [a-01-25]

SMILES: CC1CC2C[C@@H](C(=O)NCCC=Cc3c(OCc4ccccc4)ccc4ncc(cc34)N2)N1C (some centres unmarked)
ring closure, isolated yield ([1]; from CC1CC(N)C[C@@H](C(=O)NCC/C=C/c2c(OCc3ccccc3)ccc3ncc(Br)cc23)N1C, cn_pd bond, Pd2(dba)3/XPhos/NaOPh, 1,4-dioxane, 97.4 mM, 14.0 h): 75%
